According to ChEMBL document CHEMBL5038589, “Design, Synthesis, and Structure-Activity Relationship of N-Aryl-N'-(thiophen-2-yl)thiourea Derivatives as Novel and Specific Human TLR1/2 Agonists for Potential Cancer Immunotherapy” (J Med Chem, 2021):
Active and inactive are the calls of the source. The rule behind the calls is not given here.

The compounds below were run against T1, Toll-like receptor 2 (Homo sapiens, UniProt O60603) (assay: Binding affinity to recombinant human TLR2 expressed in H5 cells by surface plasmon resonance method). Settings: not given.
T1 sequence (O60603 whole entry): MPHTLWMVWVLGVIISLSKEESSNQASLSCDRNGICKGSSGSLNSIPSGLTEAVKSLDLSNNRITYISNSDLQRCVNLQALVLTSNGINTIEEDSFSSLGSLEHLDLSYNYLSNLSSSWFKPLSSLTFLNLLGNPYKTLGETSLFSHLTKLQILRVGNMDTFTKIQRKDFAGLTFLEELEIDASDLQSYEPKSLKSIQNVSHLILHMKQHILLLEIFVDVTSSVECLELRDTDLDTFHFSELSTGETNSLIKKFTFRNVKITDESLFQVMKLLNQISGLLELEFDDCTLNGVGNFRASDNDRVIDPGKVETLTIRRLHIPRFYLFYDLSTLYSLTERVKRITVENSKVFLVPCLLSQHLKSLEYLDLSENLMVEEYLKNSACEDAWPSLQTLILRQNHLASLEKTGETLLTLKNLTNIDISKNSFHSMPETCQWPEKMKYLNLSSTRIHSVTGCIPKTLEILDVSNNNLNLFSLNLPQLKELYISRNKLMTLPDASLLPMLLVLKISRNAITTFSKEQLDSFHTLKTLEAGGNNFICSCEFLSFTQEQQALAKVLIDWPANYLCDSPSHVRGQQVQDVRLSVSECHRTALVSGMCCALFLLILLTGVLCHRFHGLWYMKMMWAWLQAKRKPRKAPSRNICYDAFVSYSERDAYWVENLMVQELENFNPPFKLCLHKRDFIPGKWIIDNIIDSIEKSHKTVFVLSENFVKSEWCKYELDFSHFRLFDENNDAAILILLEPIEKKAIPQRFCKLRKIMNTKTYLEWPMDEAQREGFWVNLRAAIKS

| Kd [µM] | SMILES |
| --- | --- |
| 9 | CCOC(=O)c1c(NC(=O)Nc2ccccc2)sc2c1CCCCC2 |

These compounds were tested against T1, Toll-like receptor 2 (assay: Agonist activity at TLR2 in HEK-Blue cells upto 200 uM incubated for 24 hrs by Quanti-Blue based SEAP assay). Settings: HEK-Blue hTLR2, dose microM <=200, time 24.0 hrs.
Type: cell-based

| SMILES | Activity |
| --- | --- |
| COC(=O)c1c(NC(=O)Nc2ccc(Cl)cc2)sc2c1CCCC2 | inactive |
| CC(C)(C)OC(=O)c1c(NC(=S)Nc2cccc3ccccc23)sc2c1CCC2 | inactive |
| CCCCOC(=O)c1c(NC(=S)Nc2cccc3ccccc23)sc2c1CCCC2 | inactive |
| COC(=O)c1c(NC(=O)Nc2ccc(C)cc2)sc2c1CCC2 | inactive |
| COC(=O)c1c(NC(=S)NCCCSC)sc2c1CCCC2 | inactive |
| COC(=O)c1c(NC(=O)Nc2ccc(Cl)cc2)sc2c1CCC2 | inactive |
| CCOC(=O)c1c(NC(=O)Nc2ccc(Cl)cc2)sc2c1CCC2 | inactive |
| CCOC(=O)c1c(NC(=S)Nc2cccc3ccccc23)sc2c1CCN(C)C2 | inactive |
| CC(C)OC(=O)c1ccsc1NC(=S)Nc1cccc2ccccc12 | inactive |
| CCOC(=O)c1c(NC(=S)NCCCSC)sc2c1CCCC2 | inactive |
| CCOC(=O)c1c(NC(=O)Nc2ccc(Cl)c(Cl)c2)sc2c1CCCC2 | inactive |
| O=C(OCCc1ccccc1)c1c(NC(=S)Nc2cccc3ccccc23)sc2c1CCC2 | inactive |
| CCOC(=O)c1c(NC(=O)Nc2ccc(Cl)cc2)sc2c1CCCC2 | inactive |

The remaining lines, values ahead:

| Activity | SMILES |
| --- | --- |
| inactive | CCOC(=O)c1c(-c2ccccc2)csc1NC(=S)Nc1cccc2ccccc12 |
| inactive | CCOC(=O)c1c(NC(=O)Nc2ccc(Cl)c(Cl)c2)sc2c1CCC2 |
| inactive | CCOC(=O)c1ccsc1NC(=S)Nc1cccc2ccccc12 |
| inactive | CC(C)OC(=O)c1c(NC(=S)Nc2cccc3ccccc23)sc2c1CCN(C)C2 |
| inactive | CC(C)(C)OC(=O)c1c(NC(=S)Nc2cccc3ccccc23)sc2c1CCCC2 |
| inactive | O=C(O)c1c(NC(=S)Nc2cccc3ccccc23)sc2c1CCC2 |
| inactive | CCOC(=O)c1c(NC(=O)Nc2cccc(Cl)c2)sc2c1CCC2 |
| inactive | O=C(O)c1c(NC(=S)Nc2cccc3ccccc23)sc2c1CCCC2 |
| inactive | COC(=O)c1c(NC(=S)NCCc2ccccc2)sc2c1CCCC2 |
| inactive | CC(C)OC(=O)c1c(-c2ccccc2)csc1NC(=S)Nc1cccc2ccccc12 |

What follows are compounds tested against T1, Toll-like receptor 2 (assay: Agonist activity at TLR2 in HEK-Blue cells incubated for 24 hrs by Quanti-Blue based SEAP assay). Settings: not given.
Type: cell-based, HEK-Blue hTLR2

| SMILES | EC50 [µM] |
| --- | --- |
| CCOC(=O)c1c(NC(=S)Nc2ccc(Cl)cc2)sc2c1CCC2 | 2.5 |
| CCOC(=O)c1c(N=C(S)Nc2ccccc2)sc2c1CCCCC2 | 28.5 |
| CC(C)OC(=O)c1c(NC(=S)Nc2ccc(F)c3ccccc23)sc2c1CCCC2 | 0.035 |
| CCOC(=O)c1c(NC(=S)Nc2cccc3ccccc23)sc2c1CCC(C)C2 (configuration not stated) | 1.73 |
| CCOC(=O)c1c(NC(=O)Nc2ccc(C)cc2)sc2c1CCCC2 | 14.6 |
| COC(=O)c1c(NC(=S)Nc2ccccc2)sc2c1CCCC2 | 14.7 |
| COC(=O)c1c(NC(=S)Nc2ccccc2)sc2c1CCC2 | 14.1 |
| CC(C)COC(=O)c1c(NC(=S)Nc2cccc3ccccc23)sc2c1CCCC2 | 30.4 |
| CCOC(=O)c1c(NC(=O)Nc2cccc3ccccc23)sc2c1CCCC2 | 5.84 |
| CCOC(=O)c1c(NC(=S)Nc2ccc(F)cc2)sc2c1CCCC2 | 12.1 |

The next lines start with the values.

| EC50 [µM] | SMILES |
| --- | --- |
| 11.7 | CCOC(=O)c1c(NC(=O)Nc2ccccc2)sc2c1CCCCC2 |
| 7.33 | COC(=O)c1c(NC(=S)Nc2cccc3ccccc23)sc2c1CCCC2 |
| 12.1 | CCOC(=O)c1c(NC(=O)Nc2ccc(C)cc2)sc2c1CCC2 |
| 5.9 | CCOC(=O)c1c(NC(=S)Nc2ccccc2)sc2c1CCC2 |
| 8.77 | CCOC(=O)c1c(NC(=S)Nc2ccc(C)cc2)sc2c1CCCC2 |
| 28.2 | CC(C)COC(=O)c1c(NC(=S)Nc2cccc3ccccc23)sc2c1CCC2 |
| 11.9 | CCOC(=O)c1c(NC(=O)Nc2ccccc2)sc2c1CCC2 |
| 7.6 | CCOC(=O)c1c(NC(=O)Nc2cccc3ccccc23)sc2c1CCC2 |
| 3.57 | COC(=O)c1c(NC(=S)Nc2cccc3ccccc23)sc2c1CCC2 |
| 2.35 | CCOC(=O)c1c(NC(=S)Nc2cccc3ccccc23)sc2c1CCCCC2 |
| 13.3 | CCOC(=O)c1c(N=C(S)Nc2ccc(F)cc2)sc2c1CCC2 |
| 7.13 | CCOC(=O)c1c(NC(=S)Nc2ccc(-c3ccccc3)cc2)sc2c1CCC2 |
| 0.14 | CC(C)OC(=O)c1c(NC(=S)Nc2cccc3ccccc23)sc2c1CCCC2 |
| 11.9 | CCOC(=O)c1c(NC(=S)Nc2ccc(C(F)(F)F)cc2)sc2c1CCCC2 |
| 0.039 | CC(C)OC(=O)c1c(NC(=S)Nc2ccc(Br)c3ccccc23)sc2c1CCC2 |
| 0.82 | CCCOC(=O)c1c(NC(=S)Nc2cccc3ccccc23)sc2c1CCC2 |
| 10.3 | COC(=O)c1c(NC(=S)Nc2ccc(C)cc2)sc2c1CCCC2 |
| 33.9 | COC(=O)c1c(NC(=S)Nc2ccc(C(F)(F)F)cc2)sc2c1CCCC2 |
